From publication PMC3398342, “Cyanidin-3-O-β-glucoside regulates fatty acid metabolism via an AMP-activated protein kinase-dependent signaling pathway in human HepG2 cells” (2012)

How the values were obtained:
[1] = biological target: T1, fructose1,6-diphosphatase (FBPase); experiment: Malachite Green phosphate-release assay with D-fructose-1,6-diphosphate; type: biochemical
T1 construct: gene FBP1

[2] = biological target: T2, glycogen phosphorylase (GPPase) (Oryctolagus cuniculus, UniProt P00489); experiment: phosphoglucomutase/G6PDH-coupled spectrophotometric activity assay with glycogen; activation; type: biochemical
T2 construct: gene PYGM
T2 sequence (P00489 2-843): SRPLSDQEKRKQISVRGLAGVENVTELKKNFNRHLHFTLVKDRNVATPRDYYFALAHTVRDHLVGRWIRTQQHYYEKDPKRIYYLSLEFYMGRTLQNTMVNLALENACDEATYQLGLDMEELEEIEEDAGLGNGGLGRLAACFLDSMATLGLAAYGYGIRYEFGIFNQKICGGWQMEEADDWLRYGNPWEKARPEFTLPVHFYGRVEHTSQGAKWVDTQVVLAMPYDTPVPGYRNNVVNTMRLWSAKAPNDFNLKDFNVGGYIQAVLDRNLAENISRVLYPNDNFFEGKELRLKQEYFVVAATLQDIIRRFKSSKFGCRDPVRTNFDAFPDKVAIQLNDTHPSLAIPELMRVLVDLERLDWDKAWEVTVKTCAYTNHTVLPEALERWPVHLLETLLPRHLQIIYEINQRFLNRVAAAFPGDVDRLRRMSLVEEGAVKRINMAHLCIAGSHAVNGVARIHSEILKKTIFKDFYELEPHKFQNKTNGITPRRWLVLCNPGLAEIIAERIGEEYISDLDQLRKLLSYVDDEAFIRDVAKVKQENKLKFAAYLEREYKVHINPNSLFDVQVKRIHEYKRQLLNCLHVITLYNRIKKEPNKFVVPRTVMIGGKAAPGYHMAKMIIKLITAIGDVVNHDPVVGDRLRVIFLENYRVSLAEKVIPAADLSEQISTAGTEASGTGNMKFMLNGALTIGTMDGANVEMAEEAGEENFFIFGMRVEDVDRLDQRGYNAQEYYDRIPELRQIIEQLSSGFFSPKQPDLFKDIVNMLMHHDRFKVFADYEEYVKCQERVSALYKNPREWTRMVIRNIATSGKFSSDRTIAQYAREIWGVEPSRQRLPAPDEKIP

IC50 [1]: 1.6 µM
EC50 [2]: 18.5 µM
SMILES: Nc1ncnc2c1ncn2[C@@H]1O[C@H](COP(=O)(O)O)[C@@H](O)[C@H]1O [AMP]
